Experimental findings from ChEMBL document CHEMBL1817623, “Sesterterpenes from the tropical sponge Coscinoderma sp” (J Nat Prod, 2011) are described below.

The test system of one test is K562. Put plainly: Cytotoxicity against human K562 cells. It counts as functional. As to conditions: read-out: LC50 (the source's name).
The next test has as its target T1, Sortase A (Staphylococcus aureus, UniProt Q9S446).
T1 sequence (Q9S446 whole entry): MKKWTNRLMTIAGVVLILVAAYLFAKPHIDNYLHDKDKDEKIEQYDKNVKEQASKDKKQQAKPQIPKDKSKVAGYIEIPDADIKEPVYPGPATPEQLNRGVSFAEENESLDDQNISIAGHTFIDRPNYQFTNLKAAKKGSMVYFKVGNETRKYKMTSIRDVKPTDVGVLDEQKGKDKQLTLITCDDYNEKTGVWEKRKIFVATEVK
Put plainly: Inhibition of recombinant Staphylococcus aureus ATCC 6538p sortase lacking the N-terminal membrane anchor domain expressed in Escherichia coli cells TOP10 using Dabcyl-QALPETGEE-Edans substrate measured after 1 hr by fluorescence S13 spectrophotometry.

For a further test, the target named is Isocitrate lyase (Candida albicans, UniProt Q9P8Q7). Put plainly: Inhibition of Candida albicans isocitrate lyase.
Chain of Isocitrate lyase (Q9P8Q7 whole entry): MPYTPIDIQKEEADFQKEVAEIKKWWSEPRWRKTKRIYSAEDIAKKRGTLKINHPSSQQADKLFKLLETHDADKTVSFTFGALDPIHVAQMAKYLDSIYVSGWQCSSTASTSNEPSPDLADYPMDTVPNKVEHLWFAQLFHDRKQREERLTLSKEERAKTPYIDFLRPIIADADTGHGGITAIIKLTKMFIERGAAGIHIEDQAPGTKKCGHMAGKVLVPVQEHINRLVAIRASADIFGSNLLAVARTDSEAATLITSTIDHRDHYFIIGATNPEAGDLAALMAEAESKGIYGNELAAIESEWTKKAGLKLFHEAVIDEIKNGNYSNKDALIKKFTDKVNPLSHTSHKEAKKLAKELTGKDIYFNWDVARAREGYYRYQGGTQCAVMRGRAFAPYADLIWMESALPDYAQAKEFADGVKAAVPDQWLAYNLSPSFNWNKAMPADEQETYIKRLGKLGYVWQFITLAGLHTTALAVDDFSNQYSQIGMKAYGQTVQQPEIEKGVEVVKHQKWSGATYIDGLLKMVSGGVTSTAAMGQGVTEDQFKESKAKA
For test [1], the target named is Sodium/potassium-transporting ATPase. Put plainly: Inhibition of human Na(+)/K(+) ATPase assessed as reduction in ouabain-sensitive and K(+)-dependent cleavage of fluorescent pseudosubstrate 3-O-methylfluorescein phosphate by fluorometric method. It counts as protein-complex assay.
The next test relates to Staphylococcus aureus. Put plainly: Antimicrobial activity against Staphylococcus aureus ATCC 6538p. Format: functional.
In a further test the test system is Bacillus subtilis. Nature of the test: Antimicrobial activity against Bacillus subtilis ATCC 6633. It counts as functional.
The test system of the next test is Micrococcus luteus. Put plainly: Antimicrobial activity against Micrococcus luteus IFO 12708. Format: functional.
In another test the test system is Salmonella typhimurium. Put plainly: Antimicrobial activity against Salmonella Typhimurium ATCC 14028. Format: functional, Salmonella enterica subsp. enterica serovar Typhimurium. The following applies: Salmonella enterica.
A further test has as its system Proteus vulgaris. Put plainly: Antimicrobial activity against Proteus vulgaris ATCC 3851. Format: functional.
A further test concerns Escherichia coli. Nature of the test: Antimicrobial activity against Escherichia coli ATCC 35270. Format: functional.
A further test concerns Aspergillus fumigatus. Put plainly: Antimicrobial activity against Aspergillus fumigatus HIC 6094. It counts as functional.
In another test the test system is Trichophyton rubrum. Put plainly: Antimicrobial activity against Trichophyton rubrum IFO 9185. It counts as functional.
Test [2] deals with Trichophyton mentagrophytes. Put plainly: Antimicrobial activity against Trichophyton mentagrophytes IFO 40996. Format: functional.
The test system of the next test is Candida albicans. Nature of the test: Antimicrobial activity against Candida albicans ATCC 10231. Format: functional.

pIC50: −log10 of the molar value.

On to `CC1=CCC[C@@H](C)[C@]1(C)CC/C(C)=C/CCC(CCCc1ccoc1)COS(=O)(=O)[O-].[Na+]` (some centres not stated) [HALISULFATE 2], for which, in the test with K562, the CC50 is more than 200 µM. Further, the figures for the negative logarithm of the IC50 (pIC50) (on Sortase A; on Isocitrate lyase; in [1]) were less than 3.70, 4.62 and 5.30, respectively. Moreover, the MIC (in general, the least concentration at which growth counts as inhibited) against Staphylococcus aureus was more than 100 µg/mL; against Bacillus subtilis, 6.25 µg/mL; in the test with Micrococcus luteus it was more than 100 µg/mL; in the test on Salmonella typhimurium, more than 100 µg/mL; with Proteus vulgaris, 25 µg/mL; against Escherichia coli, more than 100 µg/mL. In addition, the minimal inhibitory concentration (MIC) (with Aspergillus fumigatus; against Trichophyton rubrum; in test [2]; against Candida albicans) was more than 100 µg/mL in each case.

In the case of `CC1(C)CCC[C@]2(C)[C@H]3CC/C(=C\OS(=O)(=O)[O-])[C@H](CCc4ccoc4)[C@@]3(C)CC[C@@H]12.[Na+]` [SUVANINE'S SODIUM SALT], the CC50 in the test on K562 is 16 µM. Moreover, the negative-log IC50 (pIC50) (as a rule, the negative decadic logarithm of the IC50, by convention in mol/L) at Sortase A was less than 3.70; on Isocitrate lyase it was 5.30; in test [1] it was 5.05. For the same compound, the MIC was 25 µg/mL with Staphylococcus aureus; 1.56 µg/mL with Bacillus subtilis; 25 µg/mL against Micrococcus luteus; 50 µg/mL with Salmonella typhimurium; 25 µg/mL with Proteus vulgaris; more than 100 µg/mL in the test on Escherichia coli. Besides, the MIC (with Aspergillus fumigatus; in the test with Trichophyton rubrum; in test [2]; with Candida albicans) was more than 100 µg/mL each time.

Consider `CC1(C)CCC[C@]2(C)[C@H]3CC/C(=C\OS(=O)(=O)[O-])[C@H](CCc4ccoc4)[C@@]3(C)CC[C@@H]12.C[N+](C)=C(N)N` [SUVANINE], for which the CC50 in the test with K562 is more than 200 µM. Besides, the negative logarithm of the IC50 (pIC50) was less than 3.70 on Sortase A, 4.77 on Isocitrate lyase and 5.10 in test [1]. Also, the MIC is 100 µg/mL in the test on Staphylococcus aureus; 1.56 µg/mL against Bacillus subtilis; more than 100 µg/mL in the test on Micrococcus luteus; 50 µg/mL with Salmonella typhimurium; more than 100 µg/mL against Proteus vulgaris; more than 100 µg/mL with Escherichia coli. The minimal inhibitory concentration (MIC) (with Aspergillus fumigatus; against Trichophyton rubrum; in [2]; in the test with Candida albicans) was more than 100 µg/mL throughout.
